Assay results from patent US8524195B2, “Iron oxide nanoparticles as MRI contrast agents and their preparing method” (Korea Basic Science Institute, priority 2010, dated 2013).

Test system: colon cancer (HT-29) cells
Assay: XTT assay, relative viability of colon cancer (HT-29) cells
Type: cell-based
Details: after 24 hours
Description: Samples were prepared by introducing the nano contrast agents (CIONPs) and the iron oxide (Fe3O4) nanoparticle drug carriers (DOX-CIONPs) prepared in Examples 2 and 3 and anti-cancer medicines (Doxorubicine) into colon cancer (HT-29) cells by concentrations of 0.001, 0.01, 0.1, 1 and 10 mM. After 24 hours, XTT reagent was added to each sample and relative viability of cancer cells according to the concentration of CIONPs, DOX-CIONPs and anti-cancer medicines (Doxorubicine) were measured. The measurement was carried out by comparing optical absorbances of formazan products from the cancer cells using an absorption spectrometer (XTT assay).

`COc1cccc2c1C(=O)c1c(O)c3c(c(O)c1C2=O)C[C@@](O)(C(=O)CO)C[C@@H]3O[C@H]1C[C@H](N)[C@H](O)[C@H](C)O1` [Doxorubicine] was tested. Which cancer cells perished (0.1 mM) did it give?
Its cancer cells perished is 35%.

And the cancer cells perished (1 mM)?
The cancer cells perished was 60%.

And the cancer cells perished (10 nm (so in the source))?
Its cancer cells perished is 62%.
